Laboratory results published in patent US20240376109A1, “PYRAZOLO[1,5-A]PYRIMIDINE COMPOUND FOR THE TREATMENT OF DERMAL DISORDERS” (OTSUKA PHARMACEUTICAL CO., LTD., priority 2021, published 2024).
pIC50: −log10 of the molar value.

biological target: T1, PAR2 (Homo sapiens, UniProt P55085); experiment: Intracellular calcium concentration measurement (SLIGKV-NH2-induced calcium change, Fluo-8, FDSS/μCELL); assay type: cell-based; settings: HEK293 cells; SLIGKV-NH2 10 μM-induced intracellular calcium change; read-out: IC50
T1 construct: HEK293 cell lines derived from human embryonic kidney cultured in a MEM culture medium; endogenous in cells; host or cells: HEK293
T1 sequence (P55085 26-397): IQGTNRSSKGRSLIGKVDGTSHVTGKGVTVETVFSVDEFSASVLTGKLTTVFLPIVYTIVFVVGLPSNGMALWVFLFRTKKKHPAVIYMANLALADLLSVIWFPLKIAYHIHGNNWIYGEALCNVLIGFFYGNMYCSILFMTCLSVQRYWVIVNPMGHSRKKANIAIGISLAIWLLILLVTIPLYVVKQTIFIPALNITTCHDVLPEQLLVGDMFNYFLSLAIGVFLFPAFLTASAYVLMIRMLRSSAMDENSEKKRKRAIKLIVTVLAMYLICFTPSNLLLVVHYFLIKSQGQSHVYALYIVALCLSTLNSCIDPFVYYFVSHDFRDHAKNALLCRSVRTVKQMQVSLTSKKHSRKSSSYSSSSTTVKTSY

Row | Structure (SMILES) | pIC50
1 | CCC1CCC(Cc2cc(C(C)C)n3nc(C(=O)N4CCCCC4)cc3n2)CC1 (stereo not drawn) [Example 138] | 7.14
2 | CC(C)c1cc(CC2CCCCC2)nc2cc(C(=O)N3CCCC(C)(O)C3(C)C)nn12 (stereo not drawn) [Example 107] | 7.17
3 | CC(C)c1cc(C2CCCCC2)nc2cc(C(=O)N3CCCCCC3)nn12 [Example 34] | 6.58
4 | COC1CCN(C(=O)c2cc3nc(C45CC6CC(CC(C6)C4)C5)cc(C(F)(F)F)n3n2)C(C)(C)C1 (stereo not drawn) [Example 63] | 7.92
5 | CCc1cc(C2CCCCCC2)nc2cc(C(=O)N3CCCCCC3)nn12 [Example 136] | 6.34
6 | CC(C)c1cc(CC2CCC2)nc2cc(C(=O)N3CCCCCC3)nn12 [Example 45] | 6.20
7 | CC(C)c1cc(CC2CCC(F)CC2)nc2cc(C(=O)N3CCCCCC3)nn12 (stereo not drawn) [Example 153] | 6.55
8 | CC(C)c1cc(C23CC4CC(CC(C4)C2)C3)nc2cc(C(=O)N3CCC(O)CC3(C)C)nn12 (stereo not drawn) [Example 64] | 7.77
9 | CC(C)c1cc(CC2CCCCC2)nc2cc(C(=O)N3CCCCC3)nn12 [Example 140] | 6.58
10 | CC1(C)CCCCN1C(=O)c1cc2nc(C34CC5CC(CC(C5)C3)C4)cc(C(F)(F)F)n2n1 [Example 24] | 8.05
11 | CC(C)c1cc(CC2CCCCC2)nc2cc(C(=O)N3CC=CCCC3)nn12 [Example 126] | 6.68
12 | CC1(C)CCCCCN1C(=O)c1cc2nc(C34CC5CC(CC(C5)C3)C4)cc(C(F)(F)F)n2n1 [Example 61] | 7.02
13 | CC(C)c1cc(COC2CCCC2)nc2cc(C(=O)N3CCCCC3(C)C)nn12 [Example 86] | 6.47
14 | CC1(C)CCCCN1C(=O)c1cc2nc(C3CCCC3)cc(C(F)(F)F)n2n1 [Example 162] | 6.52
15 | CC(C)c1cc(CC2CCCC2)nc2cc(C(=O)N3CC=CCCC3)nn12 [Example 123] | 6.87
16 | CC1(C)CSCCN1C(=O)c1cc2nc(C3CCCC3)cc(C(F)(F)F)n2n1 [Example 67] | 6.76
17 | O=C(c1cc2nc(CC3CCCCC3)cc(C(F)(F)F)n2n1)N1CCCCCCC1 [Example 25] | 7.31
18 | CC(C)c1cc(CCC2CCCCC2)nc2cc(C(=O)N3CCSCC3(C)C)nn12 [Example 74] | 6.41
19 | CC(C)c1cc(CC2CCCC2)nc2cc(C(=O)N3CCCCCCC3)nn12 [Example 51] | 6.68
20 | CC(C)c1cc(CC2CCCCC2)nc2cc(C(=O)N3CCC=CCC3)nn12 [Example 81] | 6.61
21 | CC1CCC(Cc2cc(C(C)C)n3nc(C(=O)N4CCCCC4(C)C)cc3n2)CC1 (stereo not drawn) [Example 109] | 7.07

Row | Structure (SMILES) | pIC50
22 | CC(C)c1cc(CC2CCC(C)(C)CC2)nc2cc(C(=O)N3CCCCCC3)nn12 [Example 152] | 6.88
23 | COCCN1CCN(C(=O)c2cc3nc(CC4CCCCC4)cc(C(C)C)n3n2)C(C)(C)C1 [Example 116, [5-(cyclohexylmethyl)-7-propan-2-ylpyrazolo[1,5-a]pyrimidin-2-yl]-[4-(2-methoxyethyl)-2,2-dimethylpiperazin-1-yl]methanone] | 6.63
24 | O=C(c1cc2nc(CC3CCCCC3)cc(C(F)(F)F)n2n1)N1CCCCCCCC1 [Example 27] | 6.86
25 | CCC(CC)c1cc(CC2CCCCC2)nc2cc(C(=O)N3CCC(O)CC3(C)C)nn12 (stereo not drawn) [Example 73] | 7.48
26 | CC(C)c1cc(CC2CCCC2)nc2cc(C(=O)N3CCC=CCC3)nn12 [Example 80] | 6.60
27 | CC(C)(C)c1cc(CC2CCCC2)nc2cc(C(=O)N3CCCCCCC3)nn12 [Example 150] | 6.74
28 | CC(C)c1cc(C2CC23CCCCC3)nc2cc(C(=O)N3CCCCCC3)nn12 (stereo not drawn) [Example 151] | 6.83
29 | COC1CCN(C(=O)c2cc3nc(CC4CCCCC4)cc(C(C)C)n3n2)C(C)(C)C1 (stereo not drawn) [Example 42] | 7.40
30 | O=C(c1cc2nc(N3CCCCC3)cc(C(F)(F)F)n2n1)N1CCCCCC1 [Example 95] | 6.13
31 | CCCCCCc1cc(CC2CCCCC2)nc2cc(C(=O)N3CCCCCC3)nn12 [Example 69] | 6.54
32 | CCc1cc(CC2CCCC2)nc2cc(C(=O)N3CCCCCCC3)nn12 [Example 145] | 6.60
33 | CC1(C)CCCCN1C(=O)c1cc2nc(C3C4CC5CC(C4)CC3C5)cc(C(F)(F)F)n2n1 (stereo not drawn) [Example 112] | 6.95
34 | CCCCC1CCC(c2cc(C(F)(F)F)n3nc(C(=O)N4CCCCCC4)cc3n2)CC1 (stereo not drawn) [Example 58] | 6.33
35 | CC(C)c1cc(CC2CCCCC2)nc2cc(C(=O)N3CCCCCO3)nn12 [Example 91] | 6.28
36 | O=C(c1cc2nc(C3CCC(F)(F)CC3)cc(C(F)(F)F)n2n1)N1CCCCCC1 [Example 56] | 6.55
37 | CC(C)c1cc(CC2CCC(C(F)(F)F)CC2)nc2cc(C(=O)N3CCCCCC3)nn12 (stereo not drawn) [Example 156] | 6.99
38 | CCCc1cc(CC2CCCCC2)nc2cc(C(=O)N3CCCCCC3)nn12 [Example 9, azepan-1-yl(5-(cyclohexylmethyl)-7-propylpyrazolo[1,5-a]pyrimidin-2-yl)methanone] | 7.13
39 | CC(C)c1cc(CC2CCCCC2)nc2cc(C(=O)N3CCC(O)CC3(C)C)nn12 (stereo not drawn) [Example 118] | 6.60
40 | CC(C)c1cc(CC2CCCCC2)nc2cc(C(=O)N3CCC(C)(C)C(O)C3(C)C)nn12 (stereo not drawn) [Example 120] | 6.53
41 | CC1(C)CSCCN1C(=O)c1cc2nc(CC3CCCC3)cc(C(F)(F)F)n2n1 [Example 108] | 7.11

The remaining lines, values ahead:

Row | pIC50 | Structure (SMILES)
42 | 6.41 | CCCN(C)c1cc(CC2CCCCC2)nc2cc(C(=O)N3CCCCCC3)nn12 [Example 135]
43 | 6.61 | CCC(C)c1cc(CC2CCCC2)nc2cc(C(=O)N3CCCCCCC3)nn12 (stereo not drawn) [Example 78]
44 | 6.71 | CC1CCC(Cc2cc(C(C)C)n3nc(C(=O)N4CCCCC4)cc3n2)CC1 (stereo not drawn) [Example 132]
45 | 6.40 | CC(C)c1cc(C2C3CCCCC32)nc2cc(C(=O)N3CCCCCC3)nn12 (stereo not drawn) [Example 159]
46 | 6.63 | CC(C)c1cc(C(C)C2CCCCC2)nc2cc(C(=O)N3CCCCCC3)nn12 (stereo not drawn) [Example 93]
47 | 6.43 | O=C(c1cc2nc(CC3CCCCC3)cc(C3CC3)n2n1)N1CCCCCC1 [Example 36]
48 | 6.99 | CCC(C)c1cc(CC2CCCC2)nc2cc(C(=O)N3CCCCCC3)nn12 (stereo not drawn) [Example 38]
49 | 6.60 | CC1(C)C(O)CCCN1C(=O)c1cc2nc(C3CCCCC3)cc(C(F)(F)F)n2n1 (stereo not drawn) [Example 111]
50 | 7.19 | CC(C)c1cc(CC2CCCCC2)nc2cc(C(=O)N3CCCCC3(C)C)nn12 [Example 39]
51 | 7.43 | CC1(C)CC(O)CCN1C(=O)c1cc2nc(C34CC5CC(CC(C5)C3)C4)cc(C(F)(F)F)n2n1 (stereo not drawn) [Example 102]
52 | 6.92 | CC(C)c1cc(CC2CCCCC2)nc2cc(C(=O)N3CCOCC3(C)C)nn12 [Example 76]
53 | 6.33 | O=C(c1cc2nc(CC3CCCCC3)cc(C3CCCC3)n2n1)N1CCCCCC1 [Example 29]
54 | 6.97 | CC(C)c1cc(CC2CCCCC2)nc2cc(C(=O)N3CCCCCCC3)nn12 [Example 52]
55 | 6.56 | CC(F)(F)c1cc(CC2CCCCC2)nc2cc(C(=O)N3CCCCCC3)nn12 [Example 77]
56 | 6.68 | C=C1CCCN(C(=O)c2cc3nc(CC4CCCC4)cc(C(C)C)n3n2)C1(C)C [Example 129]
57 | 6.84 | CCc1cc(CC2CCCCCC2)nc2cc(C(=O)N3CCCCCC3)nn12 [Example 148]

Row | pIC50 | Structure (SMILES)
58 | 7.70 | CC(C)c1cc(C23CC4CC(CC(C4)C2)C3)nc2cc(C(=O)N3CCCC(O)C3(C)C)nn12 (stereo not drawn) [Example 97]
59 | 6.77 | CC(C)c1cc(CC2CCCCC2)nc2cc(C(=O)N3CCCC(F)(F)CC3)nn12 [Example 142]
60 | 7.09 | CC1(C)CCCCN1C(=O)c1cc2nc(CC3CCCCC3)cc(C(F)(F)F)n2n1 [Example 31]
61 | 6.87 | CCc1cc(CC2CCCCC2)nc2cc(C(=O)N3CCCCCCC3)nn12 [Example 146]
62 | 6.51 | O=C(c1cc2nc(C34CCC(CC3)CC4)cc(C(F)(F)F)n2n1)N1CCCCCC1 [Example 85]
63 | 6.57 | CC(C)c1cc(CC2(C)CCCCC2)nc2cc(C(=O)N3CCCCCC3)nn12 [Example 98]
64 | 6.56 | O=C(c1cc2nc(C3C4CC5CC(C4)CC3C5)cc(C(F)(F)F)n2n1)N1CCCCCC1 (stereo not drawn) [Example 84]
65 | 6.53 | CC(C)(C)c1cc(CC2CCCCC2)nc2cc(C(=O)N3CCCCC3(C)C)nn12 [Example 161]
66 | 6.74 | CC(C)Cc1cc(CC2CCCCC2)nc2cc(C(=O)N3CCCCCC3)nn12 [Example 40]
67 | 7.64 | CC1(C)C(O)CCCN1C(=O)c1cc2nc(C34CC5CC(CC(C5)C3)C4)cc(C(F)(F)F)n2n1 (stereo not drawn) [Example 100]
68 | 6.47 | Cc1cc(CC2CCCCC2)nc2cc(C(=O)N3CCCCC3(C)C)nn12 [Example 99]
69 | 7.20 | CC(C)c1cc(CC2CCCC2)nc2cc(C(=O)N3CCCC(=O)C3(C)C)nn12 [Example 103]
70 | 6.86 | CC(C)c1cc(C23CC4CC(CC(C4)C2)C3)nc2cc(C(=O)N3CCCCCC3)nn12 [Example 22]
71 | 7.34 | CCC(CC)c1cc(CC2CCCC2)nc2cc(C(=O)N3CCCC(O)C3(C)C)nn12 (stereo not drawn) [Example 104]
72 | 6.32 | O=C(c1cc2nc(CC3CCCCC3)cc(C3CCC3)n2n1)N1CCCCCC1 [Example 137]

same assay, conditions: IC50 (nM)

Row | Structure (SMILES) | IC50
73 | CCCN(CCC)c1cc(CC2CCCCC2)nc2cc(C(=O)N3CCCCCC3)nn12 [Example 89, azepan-1-yl-[5-(cyclohexylmethyl)-7-(dipropylamino)pyrazolo[1,5-a]pyrimidin-2-yl]methanone] | 243 nM
74 | O=C(c1cc2nc(NC34CC5CC(CC(C5)C3)C4)cc(C(F)(F)F)n2n1)N1CCCCCC1 [Example 82] | 76 nM
75 | CC(C)c1cc(CC2CCC3CCCCC3C2)nc2cc(C(=O)N3CCCCCC3)nn12 (stereo not drawn) [Example 155] | 218 nM
